In PubChem BioAssay AID1963867 (Molecular Pharmacology Branch, DTP, NCI, 2024):

Test system: KRAS-mutant PDC tumor spheroid with HUVEC/MSC, viability
Assay: Anticancer human tumor 327498-153-R-J2-PDC patient-derived uterine carcinosarcoma cell line growth inhibition [KRAS2]
Conditions: for viability, T/C: stronger effect = lower value
In short: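 Combination screen of spheroid viability in tumor-cell co-cultures with endothelial (HUVEC) and mesenchymal stem cell stroma. Each agent was tested in half-log dilutions, topping at clinical Cmax or at 10 microM without a known Cmax.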

[1] = curve of first compound, second compound 0.1 µM
[2] = curve of first compound, second compound 0.316 µM
[3] = curve of first compound, second compound 1 µM
[4] = curve of first compound, second compound 3.16 µM
[5] = curve of first compound, second compound 10 µM
[6] = second compound 0.1 µM, first compound 0.0316 µM
[7] = second compound 0.1 µM, first compound 0.1 µM
[8] = second compound 0.1 µM, first compound 0.316 µM
[9] = second compound 0.1 µM, first compound 1 µM
[10] = second compound 0.1 µM, first compound 3.16 µM
[11] = second compound 0.1 µM, first compound 10 µM
[12] = second compound 0.316 µM, first compound 0.0316 µM
[13] = second compound 0.316 µM, first compound 0.1 µM
[14] = second compound 0.316 µM, first compound 0.316 µM
[15] = second compound 0.316 µM, first compound 1 µM
[16] = second compound 0.316 µM, first compound 3.16 µM
[17] = second compound 0.316 µM, first compound 10 µM
[18] = second compound 1 µM, first compound 0.0316 µM
[19] = second compound 1 µM, first compound 0.1 µM
[20] = second compound 1 µM, first compound 0.316 µM
[21] = second compound 1 µM, first compound 1 µM
[22] = second compound 1 µM, first compound 3.16 µM
[23] = second compound 1 µM, first compound 10 µM
[24] = second compound 3.16 µM, first compound 0.0316 µM
[25] = second compound 3.16 µM, first compound 0.1 µM
[26] = second compound 3.16 µM, first compound 0.316 µM
[27] = second compound 3.16 µM, first compound 1 µM
[28] = second compound 3.16 µM, first compound 3.16 µM
[29] = second compound 3.16 µM, first compound 10 µM
[30] = second compound 10 µM, first compound 0.0316 µM
[31] = second compound 10 µM, first compound 0.1 µM
[32] = second compound 10 µM, first compound 0.316 µM
[33] = second compound 10 µM, first compound 1 µM
[34] = second compound 10 µM, first compound 3.16 µM
[35] = second compound 10 µM, first compound 10 µM
[36] = curve of first compound, second compound 0.0316 µM
[37] = second compound 0.0316 µM, first compound 0.0316 µM
[38] = second compound 0.0316 µM, first compound 0.1 µM
[39] = second compound 0.0316 µM, first compound 0.316 µM
[40] = second compound 0.0316 µM, first compound 1 µM
[41] = second compound 0.0316 µM, first compound 3.16 µM
[42] = second compound 0.0316 µM, first compound 10 µM
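Note: spheroids exposed to agents for seven days before reading.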
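Throughout, for viability, T/C: 100% = DMSO vehicle wells so lower means fewer viable cells.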

SMILES | IC50 [1] | IC50 [2] | IC50 [3] | IC50 [4] | viability, T/C [6] | viability, T/C [7] | viability, T/C [8] | viability, T/C [9] | viability, T/C [12] | viability, T/C [13] | viability, T/C [14] | viability, T/C [15] | viability, T/C [18] | viability, T/C [19] | viability, T/C [20] | viability, T/C [21] | viability, T/C [24] | viability, T/C [25] | viability, T/C [26] | viability, T/C [27] | other results
COc1cc(Nc2ncc3c(n2)-c2ccc(Cl)cc2C(c2c(F)cccc2OC)=NC3)ccc1C(=O)O + COc1cc2nc(C)nc(NC(C)c3cc(N)cc(C(F)(F)F)c3)c2cc1OC1CCOC1 | < 31.6 nM | < 31.6 nM | < 31.6 nM | < 31.6 nM | 17.7% | 12.6% | 9.32% | 9.41% | 16.1% | 11.8% | 12.2% | 9.86% | 13.3% | 10.3% | 13.1% | 10.5% | 13.1% | 10.9% | 9.78% | 9.93% | IC50 [5]: < 31.6 nM; viability, T/C [10]: 13.8%; viability, T/C [11]: 12.8%; viability, T/C [16]: 12.5%; viability, T/C [17]: 12.2%; viability, T/C [22]: 11.7%; viability, T/C [23]: 11.5%; viability, T/C [28]: 10.5%; viability, T/C [29]: 10.5%; viability, T/C [30]: 8.09%; viability, T/C [31]: 8.45%; viability, T/C [32]: 5.81%; viability, T/C [33]: 4.52%; viability, T/C [34]: 8.87%; viability, T/C [35]: 4.93%
COc1cc2nccc(Oc3ccc(NC(=O)C4(C(=O)Nc5ccc(F)cc5)CC4)cc3)c2cc1OC + C=CC(=O)N1CCN(c2nc(OCC3CCCN3C)nc3c2CCN(c2cccc4cccc(C)c24)C3)CC1CC#N | < 31.6 nM | < 31.6 nM | < 31.6 nM | < 31.6 nM | 48.4% | 50% | 50.4% | 47.8% | 45% | 48.5% | 52.1% | 45% | 44.1% | 40.3% | 39.3% | 43.3% | 0.22% | 0.17% | 0.17% | 0.16% | IC50 [36]: 1290 nM; viability, T/C [37]: 60.9%; viability, T/C [38]: 55.4%; viability, T/C [39]: 55.6%; viability, T/C [40]: 63.9%; viability, T/C [41]: 18.4%; viability, T/C [42]: 0.28%; viability, T/C [10]: 17.3%; viability, T/C [11]: 0.84%; viability, T/C [16]: 15%; viability, T/C [17]: 0.62%; viability, T/C [22]: 11.1%; viability, T/C [23]: 0.15%; viability, T/C [28]: 0.13%; viability, T/C [29]: 0.24%
COC(=O)c1ccc2c(C(=Nc3ccc(N(C)C(=O)CN4CCN(C)CC4)cc3)c3ccccc3)c(O)[nH]c2c1 + CNCc1ccccc1-c1csc(C(C)Nc2nc(C)nc3cc(OC)c(OC)cc23)c1 | 519 nM | 308 nM | 153 nM | < 31.6 nM | 73.5% | 69.9% | 58.6% | 38.7% | 62.9% | 61.4% | 48.8% | 22.6% | 60.9% | 53% | 41.5% | 18.7% | 0.1% | 0.13% | 0.08% | 0.15% | IC50 [5]: < 31.6 nM; viability, T/C [10]: 10.9%; viability, T/C [11]: 8.59%; viability, T/C [16]: 0.98%; viability, T/C [17]: 1.62%; viability, T/C [22]: 0.06%; viability, T/C [23]: 0.11%; viability, T/C [28]: 0.04%; viability, T/C [29]: 0.11%; viability, T/C [30]: 0.43%; viability, T/C [31]: 0.37%; viability, T/C [32]: 0.36%; viability, T/C [33]: 0.1%; viability, T/C [34]: 1.07%; viability, T/C [35]: 0.16%
CCN1CCN(Cc2ccc(Nc3ncc(F)c(-c4cc(F)c5nc(C)n(C(C)C)c5c4)n3)nc2)CC1 + CC1OCC2(CCN(c3cnc(Sc4ccnc(N)c4Cl)c(N)n3)CC2)C1N | 8.23 nM | < 3.16 nM | < 3.16 nM | < 3.16 nM | 36.7% | 37.9% | 44.6% | 45.5% | 26.9% | 29.2% | 26.6% | 33.5% | 24.5% | 21.3% | 22% | 26.5% | 16.2% | 16.7% | 18.5% | 22.1% | IC50 [5]: < 3.16 nM; viability, T/C (second compound 0.1 µM, first compound 0.00316 µM): 61.5%; viability, T/C (second compound 0.1 µM, first compound 0.01 µM): 49%; viability, T/C (second compound 0.316 µM, first compound 0.00316 µM): 42.5%; viability, T/C (second compound 0.316 µM, first compound 0.01 µM): 31.6%; viability, T/C (second compound 1 µM, first compound 0.00316 µM): 34.2%; viability, T/C (second compound 1 µM, first compound 0.01 µM): 23.7%; viability, T/C (second compound 3.16 µM, first compound 0.00316 µM): 20%; viability, T/C (second compound 3.16 µM, first compound 0.01 µM): 16.6%; viability, T/C (second compound 10 µM, first compound 0.00316 µM): 19%; viability, T/C (second compound 10 µM, first compound 0.01 µM): 16.2%; viability, T/C [30]: 17.8%; viability, T/C [31]: 16.9%; viability, T/C [32]: 20.8%; viability, T/C [33]: 22%
CC(=O)Nc1cccc(-n2c(=O)n(C3CC3)c(=O)c3c(Nc4ccc(I)cc4F)n(C)c(=O)c(C)c32)c1 | – | – | – | – | – | – | – | – | – | – | – | – | – | – | – | – | – | – | – | – | viability, T/C (compound 0.0001 µM): 97.2% [middle of 5 runs]; viability, T/C (compound 0.000316 µM): 92.1% [middle of 5 runs]; viability, T/C (compound 0.001 µM): 75.5% [middle of 5 runs]; viability, T/C (compound 0.00316 µM): 63.5% [middle of 5 runs]; viability, T/C (compound 0.01 µM): 56.3% [middle of 5 runs]; viability, T/C (compound 0.0316 µM): 36.9% [middle of 5 runs]; IC50 (curve of compound): 11.7 nM [middle of 5 runs]
COC(=O)c1ccc2c(C(=Nc3ccc(N(C)C(=O)CN4CCN(C)CC4)cc3)c3ccccc3)c(O)[nH]c2c1 + C=CC(=O)N1CCN(c2nc(OCC3CCCN3C)nc3c2CCN(c2cccc4cccc(C)c24)C3)CC1CC#N | < 31.6 nM | < 31.6 nM | < 31.6 nM | < 31.6 nM | 45.9% | 42% | 37.1% | 13% | 49.2% | 41.6% | 29.6% | 14.4% | 38.6% | 21.5% | 16.4% | 9.18% | 0.33% | 0.16% | 0.15% | 0.12% | IC50 [36]: 142 nM; viability, T/C [37]: 52.8%; viability, T/C [38]: 54.7%; viability, T/C [39]: 42.9%; viability, T/C [40]: 23.4%; viability, T/C [41]: 8.28%; viability, T/C [42]: 7.36%; viability, T/C [10]: 7.74%; viability, T/C [11]: 5.84%; viability, T/C [16]: 5.46%; viability, T/C [17]: 4%; viability, T/C [22]: 0.69%; viability, T/C [23]: 1.72%; viability, T/C [28]: 1.49%; viability, T/C [29]: 0.32%
CCNC(=O)CC1N=C(c2ccc(Cl)cc2)c2cc(OC)ccc2-n2c(C)nnc21 (configuration not stated) + CC1OCC2(CCN(c3cnc(Sc4ccnc(N)c4Cl)c(N)n3)CC2)C1N | 346 nM | 102 nM | < 31.6 nM | < 31.6 nM | 64.3% | 68% | 49.8% | 37.8% | 51.8% | 51.5% | 37.9% | 27.9% | 42% | 35.4% | 31.7% | 18.3% | 31.3% | 26.1% | 20.4% | 16.9% | IC50 [5]: < 31.6 nM; viability, T/C [10]: 38.8%; viability, T/C [11]: 27.5%; viability, T/C [16]: 26.2%; viability, T/C [17]: 22.4%; viability, T/C [22]: 17.8%; viability, T/C [23]: 16.8%; viability, T/C [28]: 13.6%; viability, T/C [29]: 11.8%; viability, T/C [30]: 20.1%; viability, T/C [31]: 20.7%; viability, T/C [32]: 18.2%; viability, T/C [33]: 13.9%; viability, T/C [34]: 12%; viability, T/C [35]: 10.9%
